Reference: US9937156B2, “Modulation of MRTF-A activity in pathologic fibrosis and wound healing” (The Board of Regents of the University of Texas System, priority 2013, dated 2018)

System: tail tip fibroblasts (TTFs), MRTF-A KO and WT
Experiment: SMA expression in tail tip fibroblasts from MRTF-A KO and WT mice
Type: cell-based, mouse
Conditions: TGF-β1 48 hrs
Description: Mouse NIH/3T3 and human BR5 fibroblasts were grown as in DMEM supplemented with 10% BCS or FBS at 37° C. in a 5% CO2 incubator as previously described (Rhee et al., 2007). Primary mouse tail tip fibroblasts (TTFs) were isolated from 6- to 8-wk-old myocardin-related transcription factor (MRTF)-A−/− or wild-type littermates and cultured in DMEM supplemented with 10% FBS, nonessential amino acids, L-glutamine, and sodium pyruvate as described previously (Song et al., 2012). Once TTFs became confluent, cells were frozen in 10% DMSO containing growth media for future use before passage 3.
NIH/3T3 cells were transfected with 10 ng empty flag or flag epitope-tagged MRTF-A vector along with 100 ng smooth muscle a-actin (SMA), atrial natriuretic factor (ANF), SM22, or skeletal actin (SKA) luciferase reporter and 20 ng of β-galactosidase (β-gal) expression construct using Fugene6 (Roche). Plasmid DNA content was kept constant using empty pcDNA3.1-flag. BR5, NIH/3T3, or TTF cells were infected with adenovirus directing the expression of flag-MRTF-A, HA-MRTF-A, or β-gal as control at the multiplicity of infection (MOI) noted in the text. For experiments using chemical compounds or growth factors, cells were cultured in serum-free media (SF) for 24 h before treatment, followed by an additional 24- to 48-hr incubation in SF media treated with TGF-β1 (10 ng/mL, R&D Systems) solubilized in 4 mM HCl/1% BSA/PBS or isoxazole (20 μM) solubilized inDMSO.
Cells were treated with the indicated factor for 24 h before fixation with methanol at −20° C. for 10 min. Indirect immunofluorescence was performed by incubating with the following primary antibodies at 4° C. overnight: mouse monoclonal Cy3-conjugated anti-SMA antibody (Sigma, clone 1A4, 1:200) and rabbit monoclonal anti-HA antibody (Cell Signaling, 1:300). A secondary goat Alexa Fluor 488-conjugated anti-rabbit IgG antibody (Invitrogen, 1:200) was used to visualize HA by incubation at RT for 1 hr. All images were captured using an Olympus IX81 confocal microscope. […]

Question: Which results are given for “TGF-β1: growth factor (R&D Systems) used at 10 ng/mL to stimulate fibroblast differentiation”?
Answer: expression of genes encoding SMC contractile proteins (SMA and SM22), qPCR and Western blot (MRTF-A-deficient TTFs): blunted; SMA-positive stress fibers (MRTF-A-deficient fibroblasts): did not display an enrichment; morphology and SMA-positive stress fibers (WT fibroblasts): adopting an elongated morphology and producing SMA-positive stress fibers
